Experimental data as given in patent US5917034A, “Antithrombotic n-amidinopiperidine and benzamidine derivatives” (Pfizer Inc., priority 1995, dated 1999).
Counter-ions that a name gives are not always drawn.

Assays:
[1] = molecular target: T1, bovine pancreatic trypsin (Bos taurus, UniProt P00760); assay: Chromogenic assay, inhibition of trypsin; assay type: biochemical; settings: in vitro, substrate S2222, pH 8.0, 30° C.
T1 construct: from tissue; host or cells: bovine pancreas
T1 sequence (P00760 24-246): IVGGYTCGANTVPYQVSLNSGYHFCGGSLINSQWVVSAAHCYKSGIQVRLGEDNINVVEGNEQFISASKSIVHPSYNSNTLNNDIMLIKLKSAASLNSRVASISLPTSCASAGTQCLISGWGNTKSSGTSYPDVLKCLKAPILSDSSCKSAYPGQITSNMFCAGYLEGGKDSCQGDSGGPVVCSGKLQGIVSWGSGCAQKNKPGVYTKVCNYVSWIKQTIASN
Procedure: (§1) The inhibition of thrombin, trypsin, plasmin or factor Xa is measured in 96 well plate chromogenic assays. The percentage inhibition and IC50 are calculated from triplicate samples of an 8 concentration dose-response curve. From the substrate Km and IC50, the Ki for each inhibitor is calculated. All assays are carried out in a total incubation of 200 μl of 50 mM HEPES and 150 mM NaCl at pH 8.0, and all compound dilutions are preincubated with enzyme at room temperature for 15 minutes prior to addition of substrate. After 30 minutes incubation at 30° C., the O.D. is measured at […] in a 96 well plate reader. Thrombin activity is measured using bovine thrombin and S2238 (H-D-Phe-Pip-Arg-pNA), bovine pancreatic trypsin is assayed with S2222 (Benz-Isoleu-Glu-Gly-Arg-pNA), bovine plasma plasmin is assayed with Chromozym PL (Tosyl-Giy-Pro-Lys-pNA)and bovine factor Xa is assayed in 50 mM Tris, 150 mM NaCl, pH 7.5 buffer with S2222.
The following Table illustrates the in vitro inhibitory activities against thrombin and trypsin for a range of the compounds of the invention.

bovine thrombin = bovine thrombin (Bos taurus, UniProt P00735); assay: Chromogenic assay, inhibition of thrombin; assay type: biochemical
Procedure: as §1

Ki [1] | Ki (bovine thrombin) | Structure (SMILES)
720 nM |  | N=C(N)N1CCC(OCCC2CCCCN2C(=O)[C@H](CC(=O)O)NC2CCCCCCC2)CC1 (mixture of isomers) [Example 16, N-(N-Cyclooctyl-(S)-α-aspartyl)-2(R,S)-[2-(N-amidino-4-piperidyloxy)ethyl]piperidine dihydrochloride]
11000 nM | 35 nM | N=C(N)N1CCC(OCCC2CCCCN2C(=O)[C@H](CC(=O)O)NC2CCCCC2O)CC1 (mixture of isomers) [Example 17, N-[N-(2-Hydroxycyclohexyl)-(S)-α-aspartyl]-2(R,S)-[2-(N-amidino-4-Piperidyloxy)ethyl]piperidine bis-trifluoroacetate]
5000 nM | 16 nM | CCN(C1CCCCC1)[C@@H](CC(=O)O)C(=O)N1CCCCC1CCOC1CCN(C(=N)N)CC1 (mixture of isomers) [Example 29, N-(N-Cyclohexyl-N-ethyl-(S)-α-aspartyl)-2(R,S)-[2-(N-amidino-4-piperidyloxy)ethyl]piperidine dihydrochloride]
1300 nM | 45 nM | N=C(N)c1ccc(OCCC2CCCCN2C(=O)[C@H](CC(=O)O)NC2CCCCC2)cc1 (mixture of isomers) [Example 31, N-(N-Cyclohexyl-(S)-α-aspartyl)-2(R,S)-[2-(4-amidinophenoxy)ethyl]piperidine dihydrochloride]
1200 nM | 4.1 nM | N=C(N)N1CCC(OCC[C@@H]2CCCCN2C(=O)[C@H](CC(=O)O)NC2CC3CCC2C3)CC1 (stereo partly drawn) [Example 3, N-[N-(2-Norbornyl)-(S)α-aspartyl]-2(S)-[2-(N-amidino-4-piperidyloxy)ethyl]piperidine dihydrochloride]
360 nM | 2 nM | CN(C1CCCC(C)(C)C1)[C@@H](CC(=O)O)C(=O)N1CCCC[C@H]1CCOC1CCN(C(=N)N)CC1 (stereo partly drawn) [Example 25, N-[N-Methyl-N-(3,3-dimethylcyclohexyl)-(S)-α-aspartyl]-2(S)-[2-(N-amidino-4-piperidyloxy)ethyl]piperidine dihydrochloride]
